Here are results for 18 compounds from patent US10662164B2, “Non-beta lactam antibiotics” (University of Notre Dame du Lac, priority 2014, dated 2020).

Values after ≈ are worked out from the molar mass of the structure shown. “Also recorded” adds a separate entry of the source.

In one test the test system is S. aureus ATCC 29213. Put plainly: MIC determination. The test is classed as cell-based, Staphylococcus aureus. As to conditions: for S. aureus ATCC 29213 MIC: Table 3.1, compounds of Schemes 2-4; for MIC: Staphylococcus aureus, ATCC29213, Table 3.1 and SAR text, compounds of Schemes 2-4, read-out: S. aureus ATCC 29213 MIC; for antibacterial activity in words (SAR, ring A derivatives): S. aureus ATCC 29213, compounds of Schemes 3-4.

Another test has as its system E. faecium NCTC 7171. Description: MIC determination. Type of test: cell-based, Enterococcus faecium. The conditions noted are these: Table 3.1, compounds of Schemes 2-4; for MIC: Enterococcus faecium, NCTC7171, read-out: E. faecium NCTC 7171 MIC.

In the case of `Oc1c(F)cc(-c2nc(-c3ccc(Oc4ccc(C(F)(F)F)cc4)cc3)no2)cc1F` [Compound 71b], the “S. aureus ATCC 29213 MIC” value in the test on S. aureus ATCC 29213 worked out at 2 µg/mL. For the same compound, in the test with E. faecium NCTC 7171, the “E. faecium NCTC 7171 MIC” value was 2 µg/mL.

On to `Oc1ccc(-c2nc(-c3ccc(Oc4ccc(F)cc4)cc3)no2)cn1` [Compound 120c], for which the MIC was above 128 µg/mL with S. aureus ATCC 29213 and 64 µg/mL (≈ 183 µM) in the test with E. faecium NCTC 7171.

Consider `COC(=O)c1ccc(-c2nc(-c3ccc(Oc4ccc(F)cc4)cc3)no2)cc1` [Compound 90c], for which, in the test on S. aureus ATCC 29213, the “antibacterial activity in words (SAR, ring A derivatives)” value (shortened to “antibacterial activity in words”) was “failed to show significant activity”. Besides, the MIC in the test with S. aureus ATCC 29213 and with E. faecium NCTC 7171 was above 128 µg/mL each time.

For `O=[N+]([O-])c1cc(-c2nc(-c3ccc(Oc4ccc(F)cc4)cc3)no2)ccc1O` [Compound 91c], in the test with S. aureus ATCC 29213, the “antibacterial activity in words” value is “failed to show significant activity” and the MIC was above 128 µg/mL. In the test with E. faecium NCTC 7171, the MIC is above 128 µg/mL.

Turning to `Nc1ccc(-c2nc(-c3ccc(Oc4ccc(F)cc4)cc3)no2)cc1` [Compound 58c], in the test on S. aureus ATCC 29213, the “antibacterial activity in words” value was “no antibiotic activity; also recorded: inactive” and the MIC is above 128 µg/mL. Moreover, the MIC with E. faecium NCTC 7171 was above 128 µg/mL.

For the compound `Nc1c[nH]nc1-c1nc(-c2ccc(Oc3ccc(F)cc3)cc2)no1` [Compound 64c], the MIC in the test on S. aureus ATCC 29213 came to 16 µg/mL (≈ 47.4 µM); in the test on E. faecium NCTC 7171, 32 µg/mL (≈ 94.9 µM).

Regarding `CC(C)(C)OC(=O)N1CCC(Nc2c[nH]nc2-c2nc(-c3ccc(Oc4ccc(C(F)(F)F)cc4)cc3)no2)CC1` [Compound 110b], the MIC in the test on S. aureus ATCC 29213 and with E. faecium NCTC 7171 was above 128 µg/mL throughout.

Turning to `Nc1cncc(-c2nc(-c3ccc(Oc4ccc(C(F)(F)F)cc4)cc3)no2)c1` [Compound 122b], the MIC in the test on S. aureus ATCC 29213 and in the test with E. faecium NCTC 7171 was above 128 µg/mL each time.

For `COc1ccc(-c2nc(-c3ccc(Oc4ccc(F)cc4)cc3)no2)cc1OC` [Compound 101c], the MIC in the test on S. aureus ATCC 29213 and in the test with E. faecium NCTC 7171 was above 128 µg/mL in each case.

On to `FC(F)(F)c1ccc(Oc2ccc(-c3noc(-c4n[nH]cc4Br)n3)cc2)cc1` [Compound 61b], for which the MIC with S. aureus ATCC 29213 was 1 µg/mL (≈ 2.22 µM); with E. faecium NCTC 7171, above 128 µg/mL.

Regarding `O=C(O)c1ccc(-c2nc(-c3ccc(Oc4ccc(F)cc4)cc3)no2)cc1` [Compound 89c], in the test on S. aureus ATCC 29213, the “antibacterial activity in words” value was “failed to show significant activity” and the MIC is above 128 µg/mL. In addition, the MIC with E. faecium NCTC 7171 is 128 µg/mL (≈ 340 µM).

Consider `CCCCNc1c[nH]nc1-c1nc(-c2ccc(Oc3ccc(C(F)(F)F)cc3)cc2)no1` [Compound 104b], for which, in the test on S. aureus ATCC 29213, the “antibacterial activity in words” value was “did not extend”. The MIC in the test on S. aureus ATCC 29213 and in the test with E. faecium NCTC 7171 was above 128 µg/mL in each case.

In the case of `Oc1ccc(-c2nc(-c3ccc(Oc4ccc(C(F)(F)F)cc4)cc3)no2)cc1O` [Compound 69b], the MIC turned out to be 2 µg/mL (≈ 4.83 µM) in the test on S. aureus ATCC 29213 and 128 µg/mL (≈ 309 µM) with E. faecium NCTC 7171.

Turning to `Nc1ccc(-c2nc(-c3ccc(Oc4ccc(C(F)(F)F)cc4)cc3)no2)cc1F` [Compound 72b], the MIC in the test on S. aureus ATCC 29213 and with E. faecium NCTC 7171 was 2 µg/mL (≈ 4.82 µM) each time.

On to `FC(F)(F)c1ccc(Oc2ccc(-c3noc(-c4nc[nH]n4)n3)cc2)cc1` [Compound 116b], for which, in the test on S. aureus ATCC 29213, the “antibacterial activity in words” value is reported as “No activity” and the MIC is above 128 µg/mL. In addition, the MIC with E. faecium NCTC 7171 was above 128 µg/mL.

On to `C[Si](C)(C)C#Cc1c[nH]nc1-c1nc(-c2ccc(Oc3ccc(C(F)(F)F)cc3)cc2)no1` [Compound 103b, 3-(4-(4-Trifluoromethyl)phenoxy)phenyl)-5-(4-((trimethylsilyl)ethynyl-1H-pyrazol-3-yl)-1,2,4-oxadiazole], for which the “S. aureus ATCC 29213 MIC” value in the test with S. aureus ATCC 29213 is above 128 µg/mL. Besides, the “E. faecium NCTC 7171 MIC” value in the test on E. faecium NCTC 7171 was above 128 µg/mL.

On to `Fc1ccc(Oc2ccc(-c3noc(-c4cc[nH]c4)n3)cc2)cc1` [Compound 127c], for which, in the test on S. aureus ATCC 29213, the “antibacterial activity in words” value is “No activity” and the MIC was above 128 µg/mL. For the same compound, the MIC in the test with E. faecium NCTC 7171 is above 128 µg/mL.

Regarding `FC(F)(F)c1ccc(Oc2ccc(-c3noc(-c4n[nH]cc4NC4CCCC4)n3)cc2)cc1` [Compound 107b], in the test on S. aureus ATCC 29213, the “antibacterial activity in words” value was “did not extend” and the MIC was above 128 µg/mL. The MIC in the test on E. faecium NCTC 7171 is above 128 µg/mL.
